Where “and” joins values, the source holds several entries; their conditions need not be identical. Equal values may be shown once.
How the values were obtained:
[1] = test system: mammal adenocarcinoma MC2111; assay: Antitumor effect at animals with solid form of mammal adenocarcinoma MC2111 (Example 9); assay type: in vivo, mice DBA1; conditions: for Tumor mass (%) of control / Tumor mass, Arithm. mean: 5th-13 day, tumor size 14th day, mass from regression
leucaemia L1210 [2] = assay: Antitumor effect at animals with leucaemia L1210, intermitent administration 3x (Example 5); assay type: in vivo, mice DBA2; conditions: for Survival (in % of control) / Survival time, Geom. mean: 1st, 5th and 9th day
leucaemia L1210 [3] = assay: Antitumor effect at animals with leucaemia L1210, single administration (Example 4); assay type: in vivo, mice DBA2; conditions: mouse, in vivo
[4] = test system: ascitic form of Ehrlich tumor (ATE); assay: Antitumor effect at animals with ascitic form of Ehrlich tumor (ATE) (Example 10); assay type: in vivo, mice ICR; conditions: for Survival (in % of control) / Survival time, Geom. mean / Tumor mass (%) of control / Tumor mass, Arithm. mean: 1st-9th day; for Tumor mass (%) of control / Tumor mass, Arithm. mean: dissection 10th day
leucaemia L1210 [5] = assay: Antitumor effect at animals with leucaemia L1210, continual regimen (Example 7); assay type: in vivo, mice DBA2; conditions: for Survival (in % of control) / Survival time, Geom. mean: 1th-9th day
Gardner lymphosarcoma = assay: Antitumor effect at animals with solid form of Gardner lymphosarcoma (Example 8); assay type: in vivo, mice C3H; conditions: 5th day, tumors weighed 14th day
[6] = test system: ascitic form of Ehrlich tumor (ATE); assay: Antitumor effect at animals with ascitic form of Ehrlich tumor (ATE) (Example 11);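 on all read-outs here: half of each dose group killed on day 10, tumor mass taken as animal mass lost on ascites aspiration, ascitocrit by microhematocrit centrifuge, rest followed daily for survival versus reference group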; conditions: for Survival (in % of control) / Survival time, Geom. mean / Total ascitocrit (%) of control / Total ascitocrit (mass of cell fraction of a tumor), Arithm. mean / Tumor mass (%) of control / Tumor mass, Arithm. mean: 1th-9th day; for Total ascitocrit (%) of control / Total ascitocrit (mass of cell fraction of a tumor), Arithm. mean / Tumor mass (%) of control / Tumor mass, Arithm. mean: dissection 10th day
Description: After termination of application, one half of animals in each dosage group was destroyed at 10th day after inoculation in ether narcosis, the ascits were sucked out after laparotomy and the mass of a tumor at each of the animals was determined from the difference of mass before and after sucking out the ascit. Ascitocrit in ascitic liquor of single animals was determined on microhematocrit centrifuge in heparinized capillary tubes of 75 mm length. The value of “total ascitocrit”corresponding to a mass of cells in ascitic liquor has been determined from percentage of ascitocrit and mass of the tumor. Remaining animals were left for monitoring the survival time. In these animals, the survival time was monitored on daily basis. The dependence of the survival time value on the applied dose was evaluated in comparison with the reference group.
The single estimated time points as biological responses were evaluated by a test of equivalence of two mean values (Student's t-test). Geometric mean was calculated from single values of survival time, arithmetic means were calculated from single values of tumor mass and total ascitocrit. Difference between mean values was evaluated by a test of equivalence of two mean values (Student's t-test) under presumption of normal probability distribution of mass values as well as of total ascitocrit values and of logarithmic/normal distribution of temporal values, all under presumption of possible unknown disseminations. Those diferences in mean values, whose values of a test criterium exceeded the critical value at the 5% and 1% significance level were evaluated as statistically significant and highly statistically significant, respectively.
The optimum dosage has been calculated from values of survival time according to the proportional risk model of Cox (Carter et al., 1982). Parameters of Weinbull distribution and logarithmic transformation of introductory data were used for estimation of a basic and modified survival function from experimental data.

leucaemia L1210 [7] = assay: Antitumor effect at animals with leucaemia L1210, continual versus intermitent regimen (Example 6); assay type: in vivo, mice DBA2
[8] = 9 mg/kg/day p.o. 3x, 1,5,9th day (lowest dose group)
[9] = 12 mg/kg/day p.o. 9x, 1-9th day
[10] = 18 mg/kg/day p.o. 3x, 1,5,9th day
[11] = 36 mg/kg/day p.o. 3x, 1,5,9th day

SMILES: CC(=O)[O-].CC(=O)[O-].N.NC12CC3CC(CC(C3)C1)C2.[Cl-].[Cl-].[Pt+4] [LA-12, Af-bis (Acetato)-b-(1-Adamantylamine)-c-ammin-de-dichloroplatinum (IV) Complex]
- Tumor mass (%) of control ([1]; 3 mg/kg/day p.o. 9x): 86%
- Tumor mass, Arithm. mean ([1]; 3 mg/kg/day p.o. 9x): 4.02 g
- Tumor mass (%) of control ([1]; 6 mg/kg/day p.o. 9x): 80%
- Tumor mass, Arithm. mean ([1]; 6 mg/kg/day p.o. 9x): 3.73 g
- Tumor mass (%) of control ([1]; 12 mg/kg/day p.o. 9x): 87%
- Tumor mass, Arithm. mean ([1]; 12 mg/kg/day p.o. 9x): 4.05 g
- Survival (in % of control) ([1]; mouse, in vivo): 116% and 117%
- Survival time, Geom. mean ([1]; mouse, in vivo): 25.1 days and 25.3 days and 27.7 days
- Evaluation of antitumor effect, in words ([1]; p.o.×9 12, 6, 3 mg/kg/day, Platidiam 8 and 4 mg/kg s.c. once): antitumor effective
- Survival (in % of control) (leucaemia L1210 [2]; 2 mg/kg/day p.o. 3x): >121%
- Survival time, Geom. mean (leucaemia L1210 [2]; 2 mg/kg/day p.o. 3x): 19.0 days
- Survival (in % of control) (leucaemia L1210 [2]; 4 mg/kg/day p.o. 3x): 147%
- Survival time, Geom. mean (leucaemia L1210 [2]; 4 mg/kg/day p.o. 3x): 23.0 days
- Survival (in % of control) (leucaemia L1210 [2]; 4 mg/kg/day p.o. 3x, listed as LA-] 2): 148%
- Survival (in % of control) (leucaemia L1210 [2]; 8 mg/kg/day p.o. 3x): 118%
- Survival time, Geom. mean (leucaemia L1210 [2]; 8 mg/kg/day p.o. 3x): 18.5 days
- Optimum dose as calculated according to Carter (leucaemia L1210 [2]; intermitent oral administration 3x): 4.55 mg/kg/day p.o.×3
- Increase of mean value of survival time in comparison with the untreated control group (leucaemia L1210 [3]): 55%
- Survival (in % of control) ([4]; 3 mg/kg/day p.o. 9x): 157%
- Survival time, Geom. mean ([4]; 3 mg/kg/day p.o. 9x): 18.0 days
- Tumor mass (%) of control ([4]; 3 mg/kg/day p.o. 9x): 104%
- Tumor mass, Arithm. mean ([4]; 3 mg/kg/day p.o. 9x): 2.76 g
- Survival (in % of control) ([4]; 6 mg/kg/day p.o. 9x): 219%
- Survival time, Geom. mean ([4]; 6 mg/kg/day p.o. 9x): 25.1 days
- Tumor mass (%) of control ([4]; 6 mg/kg/day p.o. 9x): 100%
- Tumor mass, Arithm. mean ([4]; 6 mg/kg/day p.o. 9x): 2.66 g
- Survival (in % of control) ([4]; 12 mg/kg/day p.o. 9x): 135%
- Survival time, Geom. mean ([4]; 12 mg/kg/day p.o. 9x): 15.5 days
- Tumor mass (%) of control ([4]; 12 mg/kg/day p.o. 9x): 84%
- Tumor mass, Arithm. mean ([4]; 12 mg/kg/day p.o. 9x): 2.23 g
- Significance of mean survival time increase in comparison with untreated control (p≦0.01), in words ([4]; Tab. 7-2): atatistically highly significant
- Survival (in % of control) (leucaemia L1210 [5]; 3 mg/kg/day p.o. 9x): 198%
- Survival time, Geom. mean (leucaemia L1210 [5]; 3 mg/kg/day p.o. 9x): 44.6 days
- Survival (in % of control) (leucaemia L1210 [5]; 6 mg/kg/day p.o. 9x): 172%
- Survival time, Geom. mean (leucaemia L1210 [5]; 6 mg/kg/day p.o. 9x): 38.8 days
- Survival (in % of control) (leucaemia L1210 [5]; 12 mg/kg/day p.o. 9x): 210%
- Survival time, Geom. mean (leucaemia L1210 [5]; 12 mg/kg/day p.o. 9x): 47.2 days
- Evaluation of antitumor effect (survival time versus control), in words (leucaemia L1210 [5]; in the dosages used, p.o.×9): antitumor effective
- Increase of survival time value in comparison with the control group (leucaemia L1210 [5]; in the dosages used, p.o.×9): 130%
- Tumor mass (%) of control (Gardner lymphosarcoma; 2 mg/kg p.o. 1x): 80%
- Tumor mass, Arithm. mean (Gardner lymphosarcoma; 2 mg/kg p.o. 1x): 5.02 g
- Tumor mass (%) of control (Gardner lymphosarcoma; 8 mg/kg p.o. 1x): 88%
- Tumor mass, Arithm. mean (Gardner lymphosarcoma; 8 mg/kg p.o. 1x): 5.46 g
- Tumor mass (%) of control (Gardner lymphosarcoma; 32 mg/kg p.o. 1x): 77%
- Tumor mass, Arithm. mean (Gardner lymphosarcoma; 32 mg/kg p.o. 1x): 4.80 g
- Survival (in % of control) ([6]; 3 mg/kg/day p.o. 9x): 143%
- Survival time, Geom. mean ([6]; 3 mg/kg/day p.o. 9x): 12.7 days
- Total ascitocrit (%) of control ([6]; 3 mg/kg/day p.o. 9x): 100%
- Total ascitocrit (mass of cell fraction of a tumor), Arithm. mean ([6]; 3 mg/kg/day p.o. 9x): 0.68 g
- Tumor mass (%) of control ([6]; 3 mg/kg/day p.o. 9x): 110%
- Tumor mass, Arithm. mean ([6]; 3 mg/kg/day p.o. 9x): 4.32 g
- Survival (in % of control) ([6]; 6 mg/kg/day p.o. 9x): 153%
- Survival time, Geom. mean ([6]; 6 mg/kg/day p.o. 9x): 13.6 days
- Total ascitocrit (%) of control ([6]; 6 mg/kg/day p.o. 9x): 99%
- Total ascitocrit (mass of cell fraction of a tumor), Arithm. mean ([6]; 6 mg/kg/day p.o. 9x): 0.68 g
- Tumor mass (%) of control ([6]; 6 mg/kg/day p.o. 9x): 78%
- Tumor mass, Arithm. mean ([6]; 6 mg/kg/day p.o. 9x): 3.07 g
- Survival (in % of control) ([6]; 12 mg/kg/day p.o. 9x): 134%
- Survival time, Geom. mean ([6]; 12 mg/kg/day p.o. 9x): 11.9 days
- Total ascitocrit (%) of control ([6]; 12 mg/kg/day p.o. 9x): 64%
- Total ascitocrit (mass of cell fraction of a tumor), Arithm. mean ([6]; 12 mg/kg/day p.o. 9x): 0.44 g
- Tumor mass (%) of control ([6]; 12 mg/kg/day p.o. 9x): 47%
- Tumor mass, Arithm. mean ([6]; 12 mg/kg/day p.o. 9x): 1.86 g
- Evaluation of antitumor effect (survival time versus control), in words ([6]; p.o.×9, Platidiam 8 and 4 mg/kg s.c.×1, Tab. 8.1): didnot increase the survival time statistically significant
- Survival (in % of control) (leucaemia L1210 [7]; 3 mg/kg/day p.o. 9x, 1-9th day): 96%
- Survival time, Geom. mean (leucaemia L1210 [7]; 3 mg/kg/day p.o. 9x, 1-9th day): 11.1 days
- Increase of survival time value in comparison with the control group (leucaemia L1210 [7]; 6 mg/kg p.o.×9): 130%
- Survival (in % of control) (leucaemia L1210 [7]; 6 mg/kg/day p.o. 9x, 1-9th day): 230%
- Survival time, Geom. mean (leucaemia L1210 [7]; 6 mg/kg/day p.o. 9x, 1-9th day): 16.6 days
- Survival (in % of control) (leucaemia L1210 [7]; [8]): 115%
- Survival time, Geom. mean (leucaemia L1210 [7]; [8]): 13.3 days
- Survival (in % of control) (leucaemia L1210 [7]; [9]): 118%
- Survival time, Geom. mean (leucaemia L1210 [7]; [9]): 13.6 days
- Survival (in % of control) (leucaemia L1210 [7]; [10]): 158%
- Survival time, Geom. mean (leucaemia L1210 [7]; [10]): 18.3 days
- Survival (in % of control) (leucaemia L1210 [7]; [11]): 137%
- Survival time, Geom. mean (leucaemia L1210 [7]; [11]): 15.9 days
- Evaluation of antitumor effect (survival time versus control), in words (leucaemia L1210 [7]; LA-12 6 mg/kg p.o.×9, Platidiam 8 and 4 mg/kg s.c.×1, LA-2 any of the dosage groups): antitumor effective
